Assay results published in PubChem BioAssay (NCI).
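Tested at 5 concentrations; 48 h exposure; 96-well plates; endpoints linearly interpolated, else capped at highest concentration. GI50: concentration for 50% inhibition of growth. At the TGI there is no net growth.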

Assays:
Test in all cases: NCI anticancer screen, dose series, 48 h
[1] = test system: SNB-75 CNS
[2] = test system: 786-0 renal
[3] = test system: OVCAR-8 ovarian
[4] = test system: NCI-H23 lung
[5] = test system: MALME-3M melanoma
[6] = test system: NCI-H460 lung
[7] = test system: NCI-H226 lung
[8] = test system: COLO 205 colon
[9] = test system: SF-268 CNS
[10] = test system: EKVX NSCLC
[11] = test system: SK-OV-3 ovarian
[12] = test system: T-47D breast
[13] = test system: SF-295 CNS
[14] = test system: RXF 393 renal
[15] = test system: IGROV1 ovarian
[16] = test system: HCT-116 colon
[17] = test system: UO-31 renal
[18] = test system: ACHN renal
[19] = test system: MDA-MB-435
[20] = test system: SR leukemia
[21] = test system: TK-10 renal
[22] = test system: OVCAR-5 ovarian
[23] = test system: K-562 leukemia
[24] = test system: SW-620 colon
[25] = test system: U251 CNS
[26] = test system: SNB-19 CNS
[27] = test system: UACC-62 melanoma
[28] = test system: HOP-62 NSCLC
[29] = test system: HL-60(TB) leukemia
[30] = test system: OVCAR-3 ovarian
[31] = test system: M14 melanoma
[32] = test system: HOP-92 NSCLC
[33] = test system: SK-MEL-5 melanoma
[34] = test system: DU-145 prostate
[35] = test system: SK-MEL-2 melanoma
[36] = test system: SK-MEL-28 melanoma
[37] = test system: OVCAR-4 ovarian
[38] = test system: A498 renal
[39] = test system: CAKI-1 renal
[40] = test system: SF-539 CNS
[41] = test system: MDA-MB-231 breast
[42] = test system: LOX IMVI melanoma
[43] = test system: NCI/ADR-RES ovarian
[44] = test system: UACC-257 melanoma
[45] = test system: CCRF-CEM leukemia
[46] = test system: HCT-15 colon
[47] = test system: PC-3 prostate
[48] = test system: HT29 colon
[49] = test system: MCF7 breast
[50] = test system: SN12C renal
[51] = test system: BT-549 breast
[52] = test system: MOLT-4 leukemia
[53] = test system: KM12 colon
[54] = test system: A549 NSCLC

For `C(=C\c1ccncc1)/c1ccncc1`, the GI50 [1] was > 100 µM, the TGI [1] was > 100 µM and the GI50 [2] was > 100 µM. For the same molecule, the TGI [2] was > 100 µM, the GI50 [3] was > 100 µM and the TGI [3] was > 100 µM. For the same molecule, the GI50 [4] was > 100 µM, the TGI [4] was > 100 µM and the GI50 [5] was > 100 µM. The TGI [5] was > 100 µM, the GI50 [6] was > 100 µM and the TGI [6] was > 100 µM. The GI50 [7] was > 100 µM, the TGI [7] was > 100 µM and the GI50 [8] was > 100 µM. The TGI [8] was > 100 µM, the GI50 [9] was > 100 µM and the TGI [9] was > 100 µM. For the same molecule, the GI50 [10] was > 100 µM, the TGI [10] was > 100 µM and the GI50 [11] was > 100 µM. For the same molecule, the TGI [11] was > 100 µM, the GI50 [12] was > 100 µM and the TGI [12] was > 100 µM. The GI50 [13] was > 100 µM, the TGI [13] was > 100 µM and the GI50 [14] was > 100 µM. The TGI [14] was > 100 µM, the GI50 [15] was > 100 µM and the TGI [15] was > 100 µM. The GI50 [16] was > 100 µM, the TGI [16] was > 100 µM and the GI50 [17] was 50.5 µM. For the same molecule, the TGI [17] was > 100 µM, the GI50 [18] was > 100 µM and the TGI [18] was > 100 µM. For the same molecule, the GI50 [19] was > 100 µM, the TGI [19] was > 100 µM and the GI50 [20] was > 100 µM. For the same molecule, the TGI [20] was > 100 µM, the GI50 [21] was > 100 µM and the TGI [21] was > 100 µM. For the same molecule, the GI50 [22] was > 100 µM, the TGI [22] was > 100 µM and the GI50 [23] was > 100 µM. For the same molecule, the TGI [23] was > 100 µM, the GI50 [24] was > 100 µM and the TGI [24] was > 100 µM. For the same molecule, the GI50 [25] was > 100 µM, the TGI [25] was > 100 µM and the GI50 [26] was > 100 µM. For the same molecule, the TGI [26] was > 100 µM, the GI50 [27] was > 100 µM and the TGI [27] was > 100 µM. The GI50 [28] was > 100 µM, the TGI [28] was > 100 µM and the GI50 [29] was > 100 µM. For the same molecule, the TGI [29] was > 100 µM, the GI50 [30] was > 100 µM and the TGI [30] was > 100 µM. For the same molecule, the GI50 [31] was > 100 µM, the TGI [31] was > 100 µM and the GI50 [32] was 74.9 µM. For the same molecule, the TGI [32] was > 100 µM, the GI50 [33] was > 100 µM and the TGI [33] was > 100 µM. For the same molecule, the GI50 [34] was > 100 µM, the TGI [34] was > 100 µM and the GI50 [35] was > 100 µM. For the same molecule, the TGI [35] was > 100 µM, the GI50 [36] was > 100 µM and the TGI [36] was > 100 µM. The GI50 [37] was > 100 µM, the TGI [37] was > 100 µM and the GI50 [38] was 10 µM. The TGI [38] was > 100 µM, the GI50 [39] was > 100 µM and the TGI [39] was > 100 µM. For the same molecule, the GI50 [40] was > 100 µM, the TGI [40] was > 100 µM and the GI50 [41] was > 100 µM. The TGI [41] was > 100 µM, the GI50 [42] was > 100 µM and the TGI [42] was > 100 µM. For the same molecule, the GI50 [43] was > 100 µM, the TGI [43] was > 100 µM and the GI50 [44] was > 100 µM. The TGI [44] was > 100 µM, the GI50 [45] was > 100 µM and the TGI [45] was > 100 µM. The GI50 [46] was > 100 µM, the TGI [46] was > 100 µM and the GI50 [47] was > 100 µM. The TGI [47] was > 100 µM, the GI50 [48] was > 100 µM and the TGI [48] was > 100 µM. For the same molecule, the GI50 [49] was > 100 µM, the TGI [49] was > 100 µM and the GI50 [50] was > 100 µM. For the same molecule, the TGI [50] was > 100 µM, the GI50 [51] was > 100 µM and the TGI [51] was > 100 µM. The GI50 [52] was > 100 µM, the TGI [52] was > 100 µM and the GI50 [53] was > 100 µM. For the same molecule, the TGI [53] was > 100 µM, the GI50 [54] was > 100 µM and the TGI [54] was > 100 µM.
